The source of these data is ChEMBL document CHEMBL1139113, “Inhibition of the mitochondrial F1F0-ATPase by ligands of the peripheral benzodiazepine receptor” (Bioorg Med Chem Lett, 2007).

Assay [1] can be described thus: Inhibition of F1F0-ATPase hydrolysis activity in bovine submitochondrial particles. Details: species or system Bos taurus.
Assay [2] is described as follows: Inhibition of F1F0-ATPase synthesis activity in bovine submitochondrial particles. More on the design: species or system Bos taurus.
The subject of assay [3] is Ramos. Nature of the assay: Induction of reactive oxygen species response in Ramos cells after 1 hr. Type of assay: functional, cell-based. The settings on record: Homo sapiens.
For assay [4], the system named is Jurkat. Nature of the assay: Induction of reactive oxygen species response in Jurkat cells after 1 hr. It counts as functional, cell-based. Particulars: Homo sapiens.
For assay [5], the system named is Ramos. Nature of the assay: Induction of cell death in Ramos cells after 24 hrs. It counts as functional, cell-based. The settings on record: Homo sapiens.
In assay [6] the test system is Jurkat. Nature of the assay: Induction of cell death in Jurkat cells after 24 hrs. It counts as functional, cell-based. Particulars: Homo sapiens.
Assay [7] relates to Jurkat. Nature of the assay: Induction of reactive oxygen species response in Jurkat cells at 75 uM after 1 hr. It counts as functional, Homo sapiens.
In assay [8] the test system is Jurkat. Nature of the assay: Induction of cell death in Jurkat cells at 75 uM in presence of Vitamin E after 24 hrs. Type of assay: functional, Homo sapiens.
The subject of assay [9] is Jurkat. Nature of the assay: Induction of reactive oxygen species response in Jurkat cells at 75 uM in presence of Mn(III)tetrakis(4-benzoic acid)porphyrin after 1 hr. Type of assay: functional, Homo sapiens.
Assay [10] relates to Jurkat. Nature of the assay: Induction of reactive oxygen species response in Jurkat cells at 75 uM in presence of Vitamin E after 1 hr. It counts as functional, Homo sapiens.
Assay [11] relates to Jurkat. Nature of the assay: Induction of cell death in Jurkat cells at 75 uM after 24 hrs. It counts as functional, Homo sapiens.
For assay [12], the system named is Jurkat. Nature of the assay: Induction of cell death in Jurkat cells at 75 uM in presence of Mn(III)tetrakis(4-benzoic acid)porphyrin after 24 hrs. Type of assay: functional, Homo sapiens.

Take `CN1C(=O)C(Cc2ccc3ccccc3c2)N=C(c2ccc(O)cc2)c2cc(Cl)ccc21` (stereo unspecified): the EC50 in [1] was found to be 8.9 µM; in assay [2], 5.5 µM; in [3], 7.3 µM; in assay [4], 10 µM; in assay [5], 6.3 µM; in [6], 6 µM.

On to `O=C1CN=C(c2ccccc2Cl)c2cc([N+](=O)[O-])ccc2N1` [CLONAZEPAM], for which the half-maximal effective concentration (EC50) in assay [1] is 240 µM; in assay [2], 120 µM; in assay [3] it was more than 300 µM; in [4] it was more than 300 µM; in [5], more than 300 µM; in assay [6], more than 300 µM.

Turning to `CN1C(=O)CN=C(c2ccccc2)c2cc(Cl)ccc21` [DIAZEPAM], the EC50 is more than 300 µM in assay [1]; 210 µM in [2]; 170 µM in assay [3]; 200 µM in assay [4]; 250 µM in assay [5]; 170 µM in [6].

For the compound `CCC(C)N(C)C(=O)c1cc2ccccc2c(-c2ccccc2Cl)n1` (stereo unspecified) [PK-11195], the EC50 in assay [1] was found to be 230 µM; in assay [2], 33 µM; in [3] it was 100 µM; in assay [4] it was 56 µM; in [5] it was 90 µM; in assay [6], 75 µM. Besides, the Activity in assay [7] was found to be 67.9%; in assay [8], 55.9%; in assay [9], 39.7%; in assay [10], 33.9%; in assay [11], 85.5%; in assay [12], 68.9%.

On to `CN1C(=O)CN=C(c2ccc(Cl)cc2)c2cc(Cl)ccc21` [RO-54864], for which the EC50 in [1] was more than 300 µM; in assay [2], 210 µM; in assay [3], 180 µM; in [4], 230 µM; in assay [5], 130 µM; in assay [6] it was more than 300 µM.
